Reference: US8846653B2, “Delta-tocotrienol treatment and prevention of pancreatic cancer” (University of South Florida, priority 2006, dated 2014)

Tests used:
Format in all cases: cell-based, human
MiaPaCa-2 cells [1] = assay: MTS assay of MiaPaCa2 cultures, single 50 μM dose; settings: MiaPaCa2, 50 μM
How it was run: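 This MTS viability assay used MiaPaCa2 cultures treated once with 50 μM compound or vehicle, with an untreated culture grown in parallel for comparison. Cells were maintained in DMEM supplemented with 10% FBS, 1% penicillin-streptomycin and 1% L-glutamine at 37° C. under 5% CO2 and humidity.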

MiaPaCa-2 cells [2] = assay: MTT assay of MiaPaCa2 cultures, single 50 μM dose; set-up: rel amt (relative value set to the control): unit not given here; settings: MiaPaCa2, 50 μM; for MTT assay result, av-blank: average minus blank; for MTT assay result, av: average of 7 runs
How it was run: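 Viability measured by MTT 48 or 120 hours post-treatment, with a vehicle-only (ethanol-extracted olive oil) culture as control. MiaPaCa-2 cultures received one 50 μM exposure to a tocotrienol, tocopherol, tocopherol succinate, geranylgeraniol or succinic acid.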

[3] = system: SW1990 pancreatic cancer cells; assay: MTS assay of SW1990 cultures, single 50 μM dose; settings: SW1990, 50 μM
How it was run: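 MTS-based viability was measured 24, 48 or 72 h after a single 50 μM treatment; the agents were α/β/γ/δ-tocotrienol, α/β-tocopherol, tocopherol succinate, geranylgeraniol or succinic acid. The cells were SW1990, cultured in 10% FBS DMEM. Vehicle (ethanol-extracted olive oil) cultures ran in parallel as reference.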

Compound: CC(C)=CCC/C(C)=C/CC/C(C)=C/CC[C@]1(C)CCc2cc(O)c(C)c(C)c2O1 [T3 gamma, gamma tocotrienol]
- rel amt (relative value set to the control) (MiaPaCa-2 cells [1]; 24 hours): 66
- MTS assay result, run 1 (MiaPaCa-2 cells [1]; 24 hours): 0.133
- MTS assay result, run 2 (MiaPaCa-2 cells [1]; 24 hours): 0.135
- MTS assay result, run 3 (MiaPaCa-2 cells [1]; 24 hours): 0.141
- MTS assay result, run 4 (MiaPaCa-2 cells [1]; 24 hours): 0.127
- MTS assay result, run 5 (MiaPaCa-2 cells [1]; 24 hours): 0.142
- MTS assay result, run 6 (MiaPaCa-2 cells [1]; 24 hours): 0.166
- MTS assay result, run 7 (MiaPaCa-2 cells [1]; 24 hours): 0.171
- MTS assay result, run 8 (MiaPaCa-2 cells [1]; 24 hours): 0.162
- MTS assay result, run 9 (MiaPaCa-2 cells [1]; 24 hours): 0.147
- rel amt (relative value set to the control) (MiaPaCa-2 cells [1]; 48 hours): 37
- MTS assay result, run 1 (MiaPaCa-2 cells [1]; 48 hours): 0.095
- MTS assay result, run 2 (MiaPaCa-2 cells [1]; 48 hours): 0.116
- MTS assay result, run 3 (MiaPaCa-2 cells [1]; 48 hours): 0.111
- MTS assay result, run 4 (MiaPaCa-2 cells [1]; 48 hours): 0.128
- MTS assay result, run 5 (MiaPaCa-2 cells [1]; 48 hours): 0.159
- MTS assay result, run 6 (MiaPaCa-2 cells [1]; 48 hours): 0.147
- MTS assay result, run 7 (MiaPaCa-2 cells [1]; 48 hours): 0.167
- MTS assay result, run 8 (MiaPaCa-2 cells [1]; 48 hours): 0.152
- MTS assay result, run 9 (MiaPaCa-2 cells [1]; 48 hours): 0.134
- rel amt (relative value set to the control) (MiaPaCa-2 cells [1]; 72 hours): 177
- MTS assay result, run 1 (MiaPaCa-2 cells [1]; 72 hours): 0.776
- MTS assay result, run 2 (MiaPaCa-2 cells [1]; 72 hours): 0.744
- MTS assay result, run 3 (MiaPaCa-2 cells [1]; 72 hours): 0.876
- MTS assay result, run 4 (MiaPaCa-2 cells [1]; 72 hours): 0.734
- MTS assay result, run 5 (MiaPaCa-2 cells [1]; 72 hours): 0.812
- MTS assay result, run 6 (MiaPaCa-2 cells [1]; 72 hours): 0.817
- MTS assay result, run 7 (MiaPaCa-2 cells [1]; 72 hours): 0.773
- MTS assay result, run 8 (MiaPaCa-2 cells [1]; 72 hours): 0.759
- MTS assay result, run 9 (MiaPaCa-2 cells [1]; 72 hours): 0.786
- rel amt (relative value set to the control) (MiaPaCa-2 cells [2]; 48 hours): 40
- MTT assay result, av-blank (MiaPaCa-2 cells [2]; 48 hours): 0.124
- MTT assay result, av (MiaPaCa-2 cells [2]; 48 hours): 0.170
- MTT assay result, run 1 (MiaPaCa-2 cells [2]; 48 hours): 0.185
- MTT assay result, run 2 (MiaPaCa-2 cells [2]; 48 hours): 0.181
- MTT assay result, run 3 (MiaPaCa-2 cells [2]; 48 hours): 0.156
- MTT assay result, run 4 (MiaPaCa-2 cells [2]; 48 hours): 0.183
- MTT assay result, run 5 (MiaPaCa-2 cells [2]; 48 hours): 0.21
- MTT assay result, run 6 (MiaPaCa-2 cells [2]; 48 hours): 0.141
- MTT assay result, run 7 (MiaPaCa-2 cells [2]; 48 hours): 0.137
- rel amt (relative value set to the control) (MiaPaCa-2 cells [2]; 120 hours (5 days)): 2
- MTT assay result, av-blank (MiaPaCa-2 cells [2]; 120 hours (5 days)): 0.042
- MTT assay result, av (MiaPaCa-2 cells [2]; 120 hours (5 days)): 0.094
- MTT assay result, run 1 (MiaPaCa-2 cells [2]; 120 hours (5 days)): 0.088
- MTT assay result, run 2 (MiaPaCa-2 cells [2]; 120 hours (5 days)): 0.084
- MTT assay result, run 3 (MiaPaCa-2 cells [2]; 120 hours (5 days)): 0.098
- MTT assay result, run 4 (MiaPaCa-2 cells [2]; 120 hours (5 days)): 0.089
- MTT assay result, run 5 (MiaPaCa-2 cells [2]; 120 hours (5 days)): 0.12
- MTT assay result, run 6 (MiaPaCa-2 cells [2]; 120 hours (5 days)): 0.084
- MTT assay result, run 7 (MiaPaCa-2 cells [2]; 120 hours (5 days)): 0.092
- rel amnt (relative value set to the control) ([3]; 24 hours): 107
- MTS assay result, run 1 ([3]; 24 hours): 0.169
- MTS assay result, run 2 ([3]; 24 hours): 0.161
- MTS assay result, run 3 ([3]; 24 hours): 0.163
- MTS assay result, run 4 ([3]; 24 hours): 0.143
- MTS assay result, run 5 ([3]; 24 hours): 0.15
- MTS assay result, run 6 ([3]; 24 hours): 0.158
- MTS assay result, run 7 ([3]; 24 hours): 0.159
- MTS assay result, run 8 ([3]; 24 hours): 0.151
- MTS assay result, run 9 ([3]; 24 hours): 0.157
- rel amnt (relative value set to the control) ([3]; 48 hours): 89
- MTS assay result, run 1 ([3]; 48 hours): 0.114
- MTS assay result, run 2 ([3]; 48 hours): 0.125
- MTS assay result, run 3 ([3]; 48 hours): 0.13
- MTS assay result, run 4 ([3]; 48 hours): 0.123
- MTS assay result, run 5 ([3]; 48 hours): 0.137
- MTS assay result, run 6 ([3]; 48 hours): 0.137
- MTS assay result, run 7 ([3]; 48 hours): 0.16
- MTS assay result, run 8 ([3]; 48 hours): 0.16
- MTS assay result, run 9 ([3]; 48 hours): 0.135
- rel amnt (relative value set to the control) ([3]; 72 hours): 177
- MTS assay result, run 1 ([3]; 72 hours): 0.776
- MTS assay result, run 2 ([3]; 72 hours): 0.744
- MTS assay result, run 3 ([3]; 72 hours): 0.88
- MTS assay result, run 4 ([3]; 72 hours): 0.734
- MTS assay result, run 5 ([3]; 72 hours): 0.812
- MTS assay result, run 6 ([3]; 72 hours): 0.817
- MTS assay result, run 7 ([3]; 72 hours): 0.77
- MTS assay result, run 8 ([3]; 72 hours): 0.759
- MTS assay result, run 9 ([3]; 72 hours): 0.786
